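Interpolation was linear, between the two tested concentrations surrounding the appropriate level; five concentrations were tested over 48 hours in 96-well plates. Abbreviation: GI50, concentration required for 50% inhibition of growth.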 Active and inactive are the calls of the source. No stated cut-off is given here; in the data, active = GI50 up to about 1.1 µM and inactive = higher.
How the values were obtained:
Assay in all cases: growth of human tumour cells (NCI), 48 h
COLO 205 = tested on: COLO 205
HCC 2998 = tested on: HCC 2998
HL-60 = tested on: HL-60
IGROV-1 = tested on: IGROV-1
LOX IMVI = tested on: LOX IMVI
MCF7 = tested on: MCF7
MDA-MB-231 = tested on: MDA-MB-231
Malme-3M = tested on: Malme-3M
PC-3 = tested on: PC-3
SF-295 = tested on: SF-295
SK-MEL-2 = tested on: SK-MEL-2
SNB-75 = tested on: SNB-75
UACC-62 = tested on: UACC-62
A549 = tested on: A549
EKVX = tested on: EKVX
M14 = tested on: M14
SNB-19 = tested on: SNB-19
MDA-N = tested on: MDA-N

Row | Compound | GI50 (COLO 205) | GI50 (HCC 2998) | GI50 (HL-60) | GI50 (IGROV-1) | GI50 (LOX IMVI) | GI50 (MCF7) | GI50 (MDA-MB-231) | GI50 (Malme-3M) | GI50 (PC-3) | GI50 (SF-295) | GI50 (SK-MEL-2) | GI50 (SNB-75) | GI50 (UACC-62) | GI50 (A549) | GI50 (EKVX) | GI50 (M14) | GI50 (SNB-19) | GI50 (MDA-N)
1 | COc1cc2c3c(c4cc(OC)c(OC)cc4c2cc1OC)C(=O)C1CCC(=O)N1C3 (configuration not stated) | 24.5 µM (inactive) | 21.7 µM (inactive) | 41.3 µM (inactive) | 2.43 µM (inactive) | 24.9 µM (inactive) | 11.9 µM (inactive) | 55.5 µM (inactive) | 8.75 µM (inactive) | 25.6 µM (inactive) | 21.6 µM (inactive) | 41.9 µM (inactive) | 11.6 µM (inactive) | 16.6 µM (inactive) | – | – | – | – | –
2 | CNC(=O)OC(COC)CN1CCN(c2ccccc2C)CC1 (configuration not stated) | > 10 µM (inactive) | > 10 µM (inactive) | > 10 µM (inactive) | > 10 µM (inactive) | > 10 µM (inactive) | > 10 µM (inactive) | > 10 µM (inactive) | > 10 µM (inactive) | > 10 µM (inactive) | > 10 µM (inactive) | > 10 µM (inactive) | > 10 µM (inactive) | > 10 µM (inactive) | > 10 µM (inactive) | > 10 µM (inactive) | > 10 µM (inactive) | > 10 µM (inactive) | –
3 | COc1ccc(C2SCC(=O)N2NC(=O)c2ccc(NC(C)=O)cc2)c(OC)c1 (configuration not stated) | > 100 µM (inactive) | > 100 µM (inactive) | > 100 µM (inactive) | > 100 µM (inactive) | – | > 100 µM (inactive) | > 100 µM (inactive) | – | – | > 100 µM (inactive) | > 100 µM (inactive) | > 100 µM (inactive) | > 100 µM (inactive) | > 100 µM (inactive) | > 100 µM (inactive) | 69.8 µM (inactive) | > 100 µM (inactive) | > 100 µM (inactive)
4 | ClCCCN(CCCCl)c1ccc(/C=N/c2cccc(Cl)c2)cc1 | 47.6 µM (inactive) | 32.1 µM (inactive) | 12.6 µM (inactive) | 29.8 µM (inactive) | 7.57 µM (inactive) | 23.5 µM (inactive) | 12.2 µM (inactive) | 6.22 µM (inactive) | 10.7 µM (inactive) | 15 µM (inactive) | 26.7 µM (inactive) | 8.93 µM (inactive) | 1.49 µM (inactive) | 10.2 µM (inactive) | 0.637 µM (active) | 29.3 µM (inactive) | 30.1 µM (inactive) | –
5 | CC(C)C[P+](c1ccccc1)(c1ccccc1)c1ccccc1 | 3.08 µM (inactive) | 8.57 µM (inactive) | 2.29 µM (inactive) | 13.3 µM (inactive) | 11.3 µM (inactive) | 3.31 µM (inactive) | 31.8 µM (inactive) | 5.7 µM (inactive) | – | 13.2 µM (inactive) | 4.36 µM (inactive) | 13.1 µM (inactive) | 3.85 µM (inactive) | 6.22 µM (inactive) | 3.1 µM (inactive) | 8.41 µM (inactive) | 9.35 µM (inactive) | –
6 | CCOC(=O)c1nc2ccccc2nc1Oc1ccc(OC)cc1 | > 100 µM (inactive) | – | > 100 µM (inactive) | > 100 µM (inactive) | > 100 µM (inactive) | > 100 µM (inactive) | > 100 µM (inactive) | > 100 µM (inactive) | > 100 µM (inactive) | > 100 µM (inactive) | > 100 µM (inactive) | – | > 100 µM (inactive) | > 100 µM (inactive) | > 100 µM (inactive) | > 100 µM (inactive) | > 100 µM (inactive) | > 100 µM (inactive)
7 | O=C1CCSSCCC(=O)NCCN1 | > 100 µM (inactive) | – | > 100 µM (inactive) | > 100 µM (inactive) | > 100 µM (inactive) | – | > 100 µM (inactive) | > 100 µM (inactive) | > 100 µM (inactive) | > 100 µM (inactive) | > 100 µM (inactive) | – | > 100 µM (inactive) | > 100 µM (inactive) | > 100 µM (inactive) | > 100 µM (inactive) | > 100 µM (inactive) | > 100 µM (inactive)
8 | Cc1cc(S(=O)(=O)[N-]/C(=N/S(=O)(=O)c2ccc(Cl)cc2)[n+]2ccc(N(C)C)cc2)c(S)cc1Cl | – | > 100 µM (inactive) | 34.8 µM (inactive) | > 100 µM (inactive) | > 100 µM (inactive) | 47.9 µM (inactive) | > 100 µM (inactive) | – | 54 µM (inactive) | 40.2 µM (inactive) | > 100 µM (inactive) | – | – | – | > 100 µM (inactive) | 35.3 µM (inactive) | – | > 100 µM (inactive)
9 | COc1ccc(CC2COc3cc(OC)cc(OC)c3C2=O)cc1 (configuration not stated) | 14.8 µM (inactive) | – | 13.2 µM (inactive) | 28.7 µM (inactive) | 34.5 µM (inactive) | 36 µM (inactive) | 33.3 µM (inactive) | 15.3 µM (inactive) | 22.5 µM (inactive) | 17.5 µM (inactive) | 36.5 µM (inactive) | – | 32.8 µM (inactive) | 33.9 µM (inactive) | 29.5 µM (inactive) | 16.4 µM (inactive) | 25.2 µM (inactive) | 3.76 µM (inactive)

Source: ChEMBL document CHEMBL1201862, “PubChem BioAssay data set” (2004)
